# Laboratory results from PubChem BioAssay AID463199 (Broad Institute, 2010).
# The source made the active and inactive calls.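 Rule for the calls: active = AC50, the dose giving half-maximal effect, exceeds a fixed cutoff for a compound that rescues yeast growth under heat; inactive = the rest, inconclusive results apart.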
# Test system: S. cerevisiae Burl-1 ts mutant growth, BacTiter-Glo, 38.5C 24 h
# Test: growth induction of Burl-1 ts yeast mutant, dose response, counter-screen for SUMOylation pathway inhibitor project, whole organism, S. cerevisiae, luminescence (AID 463199)
row,SMILES,AC50
1,C(=N\N1CCN(C2c3ccccc3-c3ccccc32)CC1)/c1ccncc1,> 42 µM (inactive)
2,CCC1CCCCN1C(=O)CSc1nc2c([nH]c3ccccc32)c(=O)n1C (stereo unspecified),> 42 µM (inactive)
3,CC[C@@H]1C/C=C\Cc2ccccc2[C@H](C(=O)C[C@@H](O)CC(C)=O)OC1=O,> 42 µM (inactive)
4,O=c1c2ccccc2nc(SCc2ccc([N+](=O)[O-])cc2)n1CCCO,> 42 µM (inactive)
5,CCC(C)N1C(=O)CN(C2CCCCCC2)C(=O)C1c1ccccc1F (stereo unspecified),> 42 µM (inactive)
6,Cc1nc(-c2ccc(Cl)cc2)sc1C1(C)CC(c2c(Cl)cccc2Cl)=NO1 (stereo unspecified),> 42 µM (inactive)
7,Cc1csc(CNc2ncnc3ccc(-c4ccccc4Cl)cc23)c1,> 42 µM (inactive)
8,CCC(c1nc2ccccc2c(=O)n1-c1nc2ccccc2s1)N1C(=O)c2ccccc2C1=O (stereo unspecified),> 42 µM (inactive)
9,O=c1c2c(ncn1Cc1ccccc1)nc1n2CCC1,> 42 µM (inactive)
10,Cc1cc(C)c2cc(C)c3nnc(SCC(=O)NCc4ccc5c(c4)OCO5)n3c2c1,> 42 µM (inactive)
11,C=CCNC(=O)c1onc(CSc2cccc(C)c2)c1C(=O)O,> 42 µM (inactive)
12,O=C(O)c1cc(Oc2ccc(C(F)(F)F)cc2Cl)ccc1[N+](=O)[O-],> 42 µM (inactive)
13,CCOC(=O)c1ccc(CNC(=O)Cn2nnc(-c3ccc(C)cc3)n2)o1,> 42 µM (inactive)
14,CC(C)(C)c1ccc(CN(Cc2ccccc2)C(c2ccccn2)c2nnnn2C(C)(C)C)cc1 (stereo unspecified),> 42 µM (inactive)
15,Cc1cc(-c2nnc3sc(C4CCCCC4)nn23)n[nH]1,> 42 µM (inactive)
16,O=[N+]([O-])c1cc([N+](=O)[O-])c2cc3ccccc3nc2c1,> 42 µM (inactive)
17,Clc1ccccc1C(c1ccccc1)(c1ccccc1)n1ccnc1,> 42 µM (inactive)
18,O=C(CSc1nnc(-c2cccs2)n1-c1ccccc1)c1ccc2c(c1)OCCO2,> 42 µM (inactive)
19,C=CC[N+]1(CC#Cc2ccccc2)CCCC1,> 42 µM (inactive)
20,O=C(O)CN(c1ccccn1)S(=O)(=O)c1ccc(Cl)cc1,> 42 µM (inactive)
21,CC1(C)CC(=O)C2=C(C1)Oc1ncn(CCO)c(=N)c1C2c1ccccc1 (stereo unspecified),> 42 µM (inactive)
22,COc1cc2c(cc1OC)CN(C(=O)Cc1c(F)cccc1Cl)CC2,> 42 µM (inactive)
23,COc1ccc(NC(=O)c2ccccc2NC(=O)NC2CCCCC2)cc1,> 42 µM (inactive)
24,O=c1oc2cc(S(=O)(=O)NCCCO)ccc2c2ccc(S(=O)(=O)NCCCO)cc12,> 42 µM (inactive)

row,SMILES,AC50
1,CCCCCC(=O)Nc1ccc(-c2csc(N)n2)cc1,> 42 µM (inactive)
2,Cc1ccc2c(c1)N(CC(=O)NCCCN1CCN(C)CC1)C(=O)CO2,> 42 µM (inactive)
3,CN(c1ccccc1)c1ccc(/C=C/[N+](=O)[O-])cc1,> 42 µM (inactive)
4,COc1ccccc1CNc1ncnc2nc[nH]c12,> 42 µM (inactive)
5,CCCSc1nc(=O)n2cccc(C)c2n1,> 42 µM (inactive)
6,C=C(C)C(=O)OC1(C(F)(F)F)Oc2cc(C)ccc2NC1=O (stereo unspecified),> 42 µM (inactive)
7,CN(C)c1ccc2nc3ccc(=[N+](C)C)cc-3sc2c1,> 42 µM (inactive)
8,CC(C)Cc1cc(CN2CCC(CO)(Cc3ccccc3)CC2)[nH]n1,> 42 µM (inactive)
9,CCn1c(C)c(C(C)=O)c(N2CCN(c3ccc(F)cc3)CC2)nc1=S,> 42 µM (inactive)
10,COc1ccc(OCC(O)CN2C(=O)NC(C)(C)C2=O)cc1 (stereo unspecified),> 42 µM (inactive)
11,COc1c2ccoc2nc2c(OC)c(OC[C@@H](O)C(C)(C)O)ccc12,> 42 µM (inactive)
12,CN(C)C(/C=C/Nc1cccc(Br)c1)=C(C#N)C#N,> 42 µM (inactive)
13,CCOC(=O)N1CCN(S(=O)(=O)c2ccc(C)c(C)c2)CC1,> 42 µM (inactive)
14,C[C@@]12C(=O)Nc3ccc(F)cc3C(=O)N1[C@H]1c3ccccc3OC[C@@H]1[C@@H]2c1ccccc1,> 42 µM (inactive)
15,Cc1sc(NC(=O)c2ccco2)c(C(c2ccc(F)cc2)N2CCN(C)CC2)c1C (stereo unspecified),> 42 µM (inactive)
16,O=S(=O)(NCc1ccccc1)c1ccc(S(=O)(=O)N(Cc2ccccn2)Cc2ccco2)cc1,16.7 µM
17,Cc1cc(Br)ccc1NC(=O)c1cnc(N2CCN(c3ccccn3)CC2)c2ccccc12,> 42 µM (inactive)
18,CC(=O)N(C(C)=O)c1c(C#N)c(C)n(-c2ccccc2)c1C(=O)c1ccccc1,> 42 µM (inactive)
19,Cc1ccc(N/C=C(\C#N)c2ccc(OCCCF)cc2)cc1,> 42 µM (inactive)
20,Oc1cccc(/C=N/N2CCN(c3ccccn3)CC2)c1,> 21 µM (inactive)
21,CCOc1ncccc1C(=O)OCC(=O)N(CC)c1ccccc1,> 42 µM (inactive)
22,O=C1c2nccnc2C(=O)N1c1ccc(C(F)(F)F)cc1,> 42 µM (inactive)
23,COc1ccc(N2CCN(C(c3cccs3)C(C)NS(C)(=O)=O)CC2)cc1 (stereo unspecified),> 42 µM (inactive)
24,CN1C(=O)C(=Cc2cn(CC(=O)N3CCCC3)c3ccccc23)C(=O)N(C)C1=O,> 42 µM (inactive)

row,SMILES,AC50
1,CCOC(=O)N1CCN(c2cc3[nH]c(=S)[nH]c3cc2F)CC1,> 42 µM (inactive)
2,NS(=O)(=O)c1cccc(NC(=O)CSc2nnnn2-c2ccccc2)c1,> 42 µM (inactive)
3,CCn1c(SCC(=O)Nc2ccc(NC(=O)c3ccco3)cc2)nnc1-c1cccs1,> 42 µM (inactive)
4,O=C(/C=C/c1cccc([N+](=O)[O-])c1)NCCSCc1ccc(Cl)cc1Cl,> 42 µM (inactive)
5,CCOc1ccccc1N(C(=O)c1snc(C(N)=O)c1N)C(CC)C(=O)NC1CCCC1 (stereo unspecified),> 42 µM (inactive)
6,O=C(Nc1ccc([N+](=O)[O-])cn1)C1CC1,> 42 µM (inactive)
7,COc1ccc(/C=C(\C#N)C(=O)NCCCn2ccnc2)cc1,> 42 µM (inactive)
8,Cc1ccc(C(C(=O)Nc2ccc3c(c2)OCO3)N(C)C(=O)Cc2c[nH]c3ccccc23)cc1 (stereo unspecified),> 42 µM (inactive)
9,Cc1ccc(NC(=O)CN(C)C(=O)c2cccc(Br)c2)cc1,> 42 µM (inactive)
10,C[C@H]1CN=C(Nc2ccccc2)N1CCC1CCCC1,> 42 µM (inactive)
11,CCOc1ccccc1NC(=O)c1ccc2c(c1)C(=O)N(CC(C)C)C2=O,> 42 µM (inactive)
12,Cc1cc(C)cc(C(=O)NC(CC(N)=O)c2ccc(NCCN3CCOCC3)c([N+](=O)[O-])c2)c1 (stereo unspecified),> 42 µM (inactive)
13,Cc1c(C(=O)NC(C)C)oc2c1-c1[nH]ncc1CC2,> 42 µM (inactive)
14,CC(=O)CSc1ncnc2sc3c(c12)CCCC3,> 42 µM (inactive)
15,O=C(Nc1ccc(OC(F)(F)F)cc1)c1ccc2ccccc2n1,> 42 µM (inactive)
16,COC(C(=O)Nc1ccnn1C1CCN(Cc2cnn(C)c2)CC1)c1ccccc1 (stereo unspecified),> 42 µM (inactive)
17,Cc1cc(S(=O)(=O)NCC(C)C)ccc1OCC(=O)N1CCOCC1,> 42 µM (inactive)
18,Cc1ccc(/C(N)=N/OC(=O)/C=C/c2ccccc2)cc1,> 42 µM (inactive)
19,CC1CC(C)(C)NC(=S)N1CC(=O)NCc1ccc(F)cc1 (stereo unspecified),> 42 µM (inactive)
20,CC(=O)/C=C/n1c(=S)oc2ccccc21,> 42 µM (inactive)
21,Cc1cccc(C(=O)NCC(=O)N2CCN(c3ccc(Cl)cc3)CC2)c1,> 42 µM (inactive)
22,CC1CCCC(C)N1CCCNC(=O)c1csc2c1CCCCC2 (stereo unspecified),> 42 µM (inactive)
23,COc1ccccc1N1CCN(C(=O)c2ccc(-c3ccccc3)cc2)CC1,> 42 µM (inactive)
